Patent publication EP3733277B1, “PATTERNED SUBSTRATE HAVING HYDROPHILIC AND HYDROPHOBIC AREAS” (Karlsruher Institut für Technologie (KIT), priority 2019, dated 2020)

Tested on: Jurkat cells
Experiment: Dose-response of doxorubicin on Jurkat cells cultured on droplet microarrays (DMA) with different surfaces or in microtiter plates; viability by Calcein AM / Propidium Iodide staining
Format: cell-based
Details: Homo sapiens
Protocol: Jurkat cells were treated with anti-cancer drug doxorubicin on DMAs containing different surfaces and coatings ((1) non-polymer surface with gelatine coating, (2) non-polymer surface without coating, (3) polymer surface with gelatine coating, which is necessary for culturing of cells on polymer, but not on non-polymer surface). Cells were cultured in 100 nL droplets volume and 100 cells per droplet on 1 mm square hydrophilic spots. Cells were incubated with drug for 24 hours. Afterwards cells were stained with Calcein AM (stains live cells) and Propidium Iodide (stains dead cells) to estimate viability of cells. DMAs were imaged using Olympus IX microscope. Image analysis was performed in Imaged software.
IC50 values were calculated in Origin software by fitting the dose-response curves shown in (a).

- IC50 (24 h, Surface: Non-polymer DMA (without coating), 100 nL droplets, 100 cells per droplet, 24 hours): 0.19 µM
- IC50 (24 h, Surface: Non-polymer DMA / gelatin, 100 nL droplets, 100 cells per droplet, 24 hours): 35.2 µM
- IC50 (24 h, Surface: Polymer DMA / gelatin (HEMA-EDMA polymer), 100 nL droplets, 100 cells per droplet, 24 hours): 203 µM
- IC50 (Surface: Microtiter plate): 0.2 µM
Structure (SMILES): COc1cccc2c1C(=O)c1c(O)c3c(c(O)c1C2=O)C[C@@](O)(C(=O)CO)C[C@@H]3O[C@H]1C[C@H](N)[C@H](O)[C@H](C)O1 [doxorubicin]
